Data published in patent publication US8119640B2, “Hedgehog pathway antagonists methods of use” (The Board of Trustees of the Leland Stanford Junior …, priority 2008, dated 2012).
“Also recorded” adds a separate entry of the source. Where two headings read alike, the source gives them in different places.

Tests used:
Type in all cases: cell-based
[1] = tested on: Hh pathway; assay: Shh-LIGHT2 assay for Hh pathway activation (Gli-dependent firefly luciferase)
Procedure: Shh-LIGHT2 assay for Hh pathway activation and library screening conditions. h-N-conditioned medium was prepared as previously described. […] For 96-well plate assays, Shh-LIGHT2 cells were seeded into each plate (10,000 cells/well) and cultured to confluency. The Shh-LIGHT2 cells were then grown in DMEM containing 0.5% CS, 100 U/mL penicillin, 0.1 mg/mL streptomycin, either 5% Shh-N-conditioned medium or 500 nM SAG, and various concentrations of the HPIs. After the cells were cultured for another 30 h, the resulting firefly and Renilla luciferase activities were measured using a Dual Luciferase Reporter kit (Promega) and a Veritas microplate luminometer (Turner Biosystems).
When the cells reached >90% confluency, they were removed by trypsinization and diluted to a final volume of 50 mL medium. This cell suspension was then plated into clear-bottom, white-walled 384-well plates using a Titertek Multidrop dispenser (50 μL/well) and the cells were cultured until they reached confluency (3-4 days). […] The plates were then placed into an automated Staccato system (Caliper Life Sciences), which includes an automated CO2 incubator. An automated protocol was then run, in 3 which a Multidrop dispenser added 10 μL of a SAG solution in 0.5% CS medium (final SAG concentration of 500 nM) to columns 1-22 and 100 nL of each compound solution was added to the plates using a V&P Scientific pin tool, resulting in a final compound screening concentration of 10 μM. The SAG-free wells were used as negative controls. After 28-32 h, the assay medium was manually removed and the plates were frozen. To assay the firefly luciferase activities, the plates were thawed and placed into a Twister II stacker in the Staccato system. Bright-Glo luciferase substrate (Promega) was added by the Multidrop dispenser and the plates were analyzed on an Analyst GT microplate reader (2 min in the dark, 0.2 sec integration/well; Molecular Devices). Hits were defined as compounds that reduce the firefly luciferase signal by at least 50% compared to inhibitor-free controls. Primary hits were then re-tested in duplicate in an eight-point, 1:1 serially diluted doseresponse curve with a starting concentration of 20 μM. In these experiments, the median inhibitory concentration (IC50) for both firefly and Renilla luciferase were determined using a Dual-Glo kit (Promega).

[2] = tested on: C3H10T(1/2) cells; assay: C3H10T(1/2) assay for Hh pathway activation (alkaline phosphatase); details: Mus musculus
Procedure: C3H10T(1/2) assay for Hh pathway activation. C3H10T(1/2) cells (ATCC) were plated into 96-well plates using DMEM containing 10% FBS, 100 U/mL penicillin, 0.1 mg/mL streptomycin, 5% Shh-N-conditioned medium, and various concentrations of the Hh pathway inhibitors. After approximately 40 h, the cells were washed with PBS and lysed in 50 μL of buffer containing 50 mM Tris-HCl, pH 9.5, 150 mM NaCl, 5 mM MgCl2, and 1% Triton X-100. Alkaline phosphatase activities in the cell lysates were quantified by adding 10 μL of the lysate to 50 μL of CDP-Star chemiluminescence reagent (Perkin Elmer) and measuring the resulting chemiluminescence on a Veritas microplate luminometer.

[3] = target: T1, Gli1 (Mus musculus, UniProt P47806); assay: Hh pathway activation mediated by overexpression of Gli1; details: for Inhibition of Hh pathway activity induced by Gli1 overexpression: NIH-3T3 cells, Gli-dependent firefly luciferase; for IC50: NIH-3T3 cells overexpressing Gli1, read-out: IC50 (uM) Gli1 Transfected or Infection
T1 construct: expressed in transfected cells; host or cells: NIH-3T3
T1 sequence (P47806 1-1111): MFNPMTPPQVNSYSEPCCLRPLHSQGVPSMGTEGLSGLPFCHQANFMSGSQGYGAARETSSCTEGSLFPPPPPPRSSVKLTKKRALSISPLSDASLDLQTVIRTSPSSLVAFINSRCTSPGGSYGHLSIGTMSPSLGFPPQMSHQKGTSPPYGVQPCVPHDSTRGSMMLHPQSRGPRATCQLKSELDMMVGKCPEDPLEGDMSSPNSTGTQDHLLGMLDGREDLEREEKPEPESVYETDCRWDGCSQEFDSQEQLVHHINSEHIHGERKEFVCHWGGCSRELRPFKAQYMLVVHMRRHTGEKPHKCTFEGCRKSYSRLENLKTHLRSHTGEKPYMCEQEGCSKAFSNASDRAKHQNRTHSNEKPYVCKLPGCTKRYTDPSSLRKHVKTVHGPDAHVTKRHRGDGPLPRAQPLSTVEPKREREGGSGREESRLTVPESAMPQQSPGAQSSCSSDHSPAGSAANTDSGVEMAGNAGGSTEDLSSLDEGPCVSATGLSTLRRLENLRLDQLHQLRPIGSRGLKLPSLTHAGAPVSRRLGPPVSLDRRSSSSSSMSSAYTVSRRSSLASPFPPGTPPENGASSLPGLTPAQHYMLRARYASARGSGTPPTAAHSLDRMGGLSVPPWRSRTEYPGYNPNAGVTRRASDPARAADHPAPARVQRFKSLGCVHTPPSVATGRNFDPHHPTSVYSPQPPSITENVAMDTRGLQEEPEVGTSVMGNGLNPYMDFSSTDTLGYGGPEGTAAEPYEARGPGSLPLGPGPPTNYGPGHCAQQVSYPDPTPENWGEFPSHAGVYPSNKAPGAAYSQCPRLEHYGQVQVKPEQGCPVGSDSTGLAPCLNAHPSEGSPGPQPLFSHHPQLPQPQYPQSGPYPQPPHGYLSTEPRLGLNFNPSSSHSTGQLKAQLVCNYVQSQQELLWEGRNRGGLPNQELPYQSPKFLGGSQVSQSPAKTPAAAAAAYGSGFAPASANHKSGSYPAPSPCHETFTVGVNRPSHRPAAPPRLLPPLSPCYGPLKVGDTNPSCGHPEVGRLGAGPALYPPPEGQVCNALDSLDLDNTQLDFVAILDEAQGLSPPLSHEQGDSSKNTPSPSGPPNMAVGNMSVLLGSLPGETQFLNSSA
Procedure: Hh pathway activation mediated by the overexpression of Gli, Gli2, Gli2αPKA, or Gli2αGSK. […] The cells were co-transfected the following day with 220 ng/well pcDNA-derived Gli1, Gli2, or Gli2 phosphosite mutant expression vectors and 80 ng/well of a 1:15 mixture of phRLTK (Promega) and 8XGIiBS-FL. After transfection, cells were grown to confluence (approximately 48 h). The cell were then incubated for an additional 28-32 h in DMEM containing 0.5% CS, 100 U/mL penicillin, 0.1 mg/mL streptomycin, and either DMSO, 50 μM forskolin, 50 μM LY294002, or various concentrations of the HPIs. Firefly and Renilla luciferase activities were measured using a dual luciferase kit and a Veritas microplate luminometer.

[4] = SAG-stimulated Shh-LIGHT2 cells, firefly luciferase, read-out: median inhibitory concentrations (IC50s) in the screen
[5] = Shh Light2, stimulated with 500 nM SAG, read-out: IC50 (uM) SAG/Shh-LIGHT2 cells
[6] = Shh Light2, stimulated with Shh-N-conditioned medium, read-out: IC50 (uM) Shh/Shh-LIGHT2 cells
[7] = C3H 10T1/2, Shh-induced differentiation, alkaline phosphatase, read-out: IC50 (uM) Shh/C3H10T[1/2] cells

| SMILES | IC50 [1, 5] [µM] | IC50 [1, 6] [µM] | IC50 [2, 7] [µM] | IC50 [3] [µM] | also measured |
| --- | --- | --- | --- | --- | --- |
| COCCOC(=O)C1=C(C)NC2=C(C(=O)CC(c3ccccc3OC)C2)C1c1cccc(O)c1 (mixture of isomers) [Compound 8, 4-(3-Hydroxy-phenyl)-7-(2-methoxy-phenyl)-2-methyl-5-oxo-1,4,5,6,7,8-hexahydro-quinoline-3-carboxylic acid 2-methoxy-ethyl ester] | 1.5 | 1.3 | 0.4 | – | IC50 [1, 4]: < 10 µM; Inhibition of Hh pathway activity induced by Gli1 overexpression ([3]; listed as HPI-1): inhibit Gli-induced firefly luciferase expression in a dose-dependent manner; also recorded: inhibits |
| N#Cc1cc2c(nc1SCC(=O)Nc1nc3ccccc3s1)CCC2 [Compound 1] | 0.21 | 0.25 | 0.9 | 1 | – |
| CCCCNC(=N)C(C)c1ccc(CC(C)C)cc1 (centres unmarked) [Compound 2] | 2.2 | 1.6 | 0.8 | > 30 | – |
| Cc1cc(/C=c2\sc3nc4ccccc4n3c2=O)c(C)n1C(C)C [Compound 3] | 0.55 | 0.5 | 0.9 | 1 | – |
| O=C(Nc1cccc2ccccc12)OC[C@@H]1CCCN2CCCC[C@H]12 [Compound 4] | 4 | 1.8 | 0.8 | > 30 | – |
| CCC(C)NS(=O)(=O)c1ccc(Cc2ccc(S(=O)(=O)NC(C)CC)cc2)cc1 (centres unmarked) [Compound 5] | 0.8 | 1 | 0.9 | 7 | – |
| CCOC(=O)c1cc2c(=O)n3ccccc3nc2n(C(C)C)c1=NC(=O)c1cc(OC)cc(OC)c1 [Compound 6] | 1 | 1 | 0.45 | 1.5 | – |
| CCN1CCCC1CNC(=O)C1CCN(c2nc3c(C)cc(C)cc3s2)CC1 (centres unmarked) [Compound 7] | 1 | 1.6 | 0.8 | > 10 | Toxicity noted in Gli1 Transfected or Infection column [3]: (Toxic at 30) |
| CCOC(=O)c1cn(-c2ccccc2)nc1-c1ccc(OC)c(OC)c1 [Compound 9] | 5 | 5 | 0.8 | > 30 | – |
| O=S(=O)(Nc1cc(Cl)c(Cl)cc1Cl)c1ccc(F)cc1 [Compound 10] | 2.2 | 2.2 | 4 | 2 | – |
| OCCNc1nc(N2CCN(c3ccccc3)CC2)nc2ccccc12 [Compound 11] | 1.5 | 2 | 2 | > 30 | IC50 [1, 4]: < 10 µM; Inhibition of Hh pathway activity induced by Gli1 overexpression ([3]; listed as HPI-3): no significant activity; also recorded: inactive |
| CC(C)(C)N(CCNS(=O)(=O)c1ccc(-c2cc(C(F)(F)F)no2)s1)Cc1ccco1 [Compound 12] | 2 | 2 | 0.25 | 4 | – |
| CN1CCN(C2Cc3ccccc3Sc3ccccc32)CC1 (centres unmarked) [Compound 13] | 1.6 | 1.4 | 2.5 | > 30 | – |
| CCOc1ccc2ncc(C(=O)c3ccc(C)cc3)c(N3CCCC3)c2c1 [Compound 14] | – | – | – | > 30 | IC50 ([1]; Shh Light2, read-out: IC50 (uM) SAG/Shh-LIGHT2 cells): 5.5 µM; IC50 ([1]; Shh Light2, read-out: IC50 (uM) Shh/Shh-LIGHT2 cells): 5.5 µM; IC50 ([2]; C3H 10T1/2, read-out: IC50 (uM) Shh/C3H10T[1/2] cells): 0.4 µM |
| O=C(Nc1nnc(S(=O)(=O)N2CCCCC2)s1)c1cccc(Br)c1 [Compound 15] | 5 | 4.5 | 4 | 12 | – |
| CCOc1ccc(CCNc2cnnc3c(Cl)cccc23)cc1OCC [Compound 16] | 8 | 4.5 | 0.2 | > 30 | – |
| COc1ccc(OC)c2c1cc1n2CC(C)(C(=O)NC2CCCCCCC2)N(CCN(C)C)C1=O (centres unmarked) [Compound 17] | 2 | 2 | 2 | > 30 | IC50 [1, 4]: < 10 µM; Inhibition of Hh pathway activity induced by Gli1 overexpression [3]: entirely due to a moderate increase in Renilla luciferase activity |
| N#CC(C(=O)c1ccc(Cl)cc1Cl)=C1NC(=O)c2ccccc2N1 [Compound 18] | 8 | 7.5 | 0.7 | > 10 | IC50 [1, 4]: < 10 µM; Inhibition of Hh pathway activity induced by Gli1 overexpression ([3]; listed as HPI-4): no significant activity; also recorded: inactive |
